Data reported in patent publication US4321267A, “1-Substituted-4 (1H)-pyridinone hydrazones active against Giardia lamblia and Trichomonas vaginalis” (priority 1980, dated 1982).
≈ marks a conversion by molar mass, not a printed value.

How the values were obtained:
Giardia lamblia [1] = experiment: In vitro anti-Giardia lamblia activity (multiwell culture, viable count by hemacytometer, 24 h); type: cell-based; conditions: Giardia duodenalis, 50% inhibition of growth, 37° C., about 16-24 hours, anaerobic, read-out: Anti-G. lamblia ED50
Protocol: (§1) About 1.0-2.0 ml of a nutrient medium, for example, the modified Diamond's (TPS) medium at pH 7.05, together with about 10% by volume of heat-inactivated serum and about 1% by volume of an antibiotic-antimycoticmixture, is placed in each well of a multi-well plate. To this mixture, an aliquot of a suspension of G. lamblia cells containing about 10^6 organism is added. Subsequently, each well is inoculated with a known concentration of one of the pyridinone hydrazones, for example, 1-[(4-chlorophenyl)-4(1H)-pyridinone]-2-[(4-chlorophenyl)methylene]-hydrazone. The multiwell plate containing the individual culture samples is incubated under anaerobic conditions at about 37° C. for about 16-24 hours. The number of viable cells remaining in each well are then counted, such as with a hemocytometer. The percentage of survival is determined by comparison to controls incubated with DMSO (dimethylsulfoxide) and the effective concentration (in parts per million) for 50% inhibition of growth (ED50) is determined. It is established that the lower the ED50 the higher the activity of the 1-substituted-4-(1H)-pyridinone hydrazone tested.
(§2) In each well of a multiwell plate is placed 1.4 ml of Diamond's TPS medium (See Table II) at pH 7.05, 10% by volume of heat-inactivated fetal bovine serium, and 1% by volume of an antibiotic-antimycotic solution (see Table III). A suspension of Giardia lamblia is centrifuged at 2,500 xg for 6 minutes. The pelleted cells are resuspended in a small volume of Diamond's medium, the cells are counted and each well inoculated with approximately 10^6 organisms. A stock solution of 1-[(4-chlorophenyl)-4(1H)-pyridinone]-2-[(4-methylthiophenyl)-methylene]hydrazone in dimethylsulfoxide is made at a concentration of 150 μg/ml. The wells are then inoculated with various concentrations of the drug. The plates are incubated for 24 hours at 37° C. in an anaerobic Gas Pak jar. After 24 hours of incubation, each well is mixed and counted for viable organisms using a hemacytometer. The percentage of survival is determined by comparing the treated wells to controls treated with dimethylsulfoxide.

Trichomonas vaginalis [2] = experiment: In vitro anti-Trichomonas vaginalis activity (method of Example 1); type: cell-based, T. vaginalis 30001; conditions: for IC50: Trichomonas vaginalis, 37° C., 24 hours, read-out: Anti-T. vaginalis ED50; for activity against T. vaginalis (in words): method of Example 1
Protocol: as §1, §2
Employing the method of Example 1, centrifuged cells of T. vaginalis 30001 are incubated with 1-[(4-chlorophenyl)-4(1H)-pyridinone]-2-[(4-methylthiophenyl)methylene]hydrazone at 37° C. for 24 hours.

Giardia lamblia [3] = conditions: humans; cited from earlier work
[4] = humans; cited from earlier work
[5] = in animals; cited from earlier work
Trichomonas vaginalis [6] = conditions: humans; cited from earlier work

Row | IC50 (Giardia lamblia [1]) [µg/mL] | IC50 (Trichomonas vaginalis [2]) [µg/mL] | Structure (SMILES) | activity against T. vaginalis (in words) (Trichomonas vaginalis [2]) | treatment of giardiasis infection (Giardia lamblia [3]) | adverse side effects [4] | carcinogenicity [5] | therapy of trichomoniasis (Trichomonas vaginalis [6])
1 | 1.45 (≈ 4.24 µM) | 2.63 (≈ 7.68 µM) | Clc1ccc(C=NN=c2ccn(-c3ccc(Cl)cc3)cc2)cc1 [(1), 1-[(4-chlorophenyl)-4(1H)-pyridinone]-2-[(4-chlorophenyl)methylene]hydrazone] | active against T. vaginalis | – | – | – | –
2 | 2.25 (≈ 6.76 µM) | 3.3 (≈ 9.92 µM) | N#Cc1ccc(C=NN=c2ccn(-c3ccc(Cl)cc3)cc2)cc1 [(2), 1-[(4-chlorophenyl)-4(1H)-pyridinone]-2-[(4-cyanophenyl)methylene]hydrazone] | active against T. vaginalis | – | – | – | –
3 | 1.1 (≈ 3.11 µM) | 2.88 (≈ 8.14 µM) | CSc1ccc(C=NN=c2ccn(-c3ccc(Cl)cc3)cc2)cc1 [(3), 1-[(4-chlorophenyl)-4(1H)-pyridinone]-2-[(4-methylthiophenyl)methylene]hydrazone] | effective anti-T. vaginalis agent | – | – | – | –
4 | 1.5 (≈ 3.98 µM) | 3 (≈ 7.96 µM) | Clc1ccc(-n2ccc(=NN=Cc3ccc(Cl)c(Cl)c3)cc2)cc1 [(4), 1-[(4-chlorophenyl)-4(1H)-pyridinone]-2-[(3,4-dichlorophenyl)methylene]hydrazone] | – | – | – | – | –
5 | 1.42 (≈ 3.78 µM) | 3.25 (≈ 8.65 µM) | FC(F)(F)c1ccc(C=NN=c2ccn(-c3ccc(Cl)cc3)cc2)cc1 [(5), 1-[(4-chlorophenyl)-4(1H)-pyridinone]-2-[(4-trifluoromethylphenyl)methylene]hydrazone] | – | – | – | – | –
6 | 1.25 (≈ 3.23 µM) | 3.63 (≈ 9.39 µM) | Clc1ccc(-n2ccc(=NN=Cc3ccc(Br)cc3)cc2)cc1 [(6), 1-[(4-chlorophenyl)-4(1H)-pyridinone]-2-[(4-bromophenyl)methylene]hydrazone] | – | – | – | – | –
7 | 1.2 (≈ 3.19 µM) | 1.75 (≈ 4.65 µM) | Clc1ccc(-n2ccc(=NN=Cc3ccc(Cl)cc3Cl)cc2)cc1 [(7)] | – | – | – | – | –
8 | 2.25 (≈ 6.91 µM) | 4 (≈ 12.3 µM) | Fc1ccc(C=NN=c2ccn(-c3ccc(Cl)cc3)cc2)cc1 [(8), 1-[(4-chlorophenyl)-4(1H)-pyridinone]-2-[(4-fluorophenyl)methylene]hydrazone] | – | – | – | – | –
9 | – | – | CCN(CC)CCCC(C)Nc1c2ccc(Cl)cc2nc2ccc(OC)cc12 (stereo not drawn) [Atabrine] | – | successfully treated | – | – | –
10 | – | – | O=C1OCCN1/N=C/c1ccc([N+](=O)[O-])o1 [furazolidone] | – | successfully treated | adverse side effects | – | –
11 | 6.2 (≈ 36.2 µM) | < 1 | Cc1ncc([N+](=O)[O-])n1CCO [metronidazole] | – | successfully treated | – | carcinogenic in animals | Successful therapy of trichomoniasis
